Laboratory results taken from US6352727B1, “Bactericides” (Oji Paper Co., Ltd., priority 1998, dated 2002).

What was measured:
Format in all cases: cell-based
[1] = system: general bacterium on the surface of beef; assay: Number of bacterium on the surface of beef treated with bactericide; details: 5 minutes immersion, preserved at 4° C.
Procedure: 50 ml of each of bactericides was charged in a vessel, and then 15 g of beef (block) was immersed in the bactericide, and allowed to stand at room temperature (surface sterilization). After 5 minutes, the bactericide was removed, and only the beef was preserved in the vessel at 4° C. After certain period ((1) after one day, (2) after three days, (3) after six days), 25 ml of physiological saline was added to the vessel containing the beef, and shaked. The number of the bacterium cells liberated from the beef into the physiological saline was counted. It was confirmed according to preliminary experiments that the number of the bacterium cells per one gram of the beef existing on the surface of the beef before sterilization treatment was 10 or less. Sterilized water and sodium hypochlorite were also examined.

Salmonella enteritidis [2] = assay: Test of bactericidal power of bactericides after treating beef (block); details: 5 min
Procedure: (§1) 100 ml of each of bactericides shown in Table 25 was charged into a vessel. 21 g of beef (block) was immersed in the bactericide, and allowed to stand at room temperature. After 24 hours, the beef was removed, and general bacterium (bacterium liberated from the beef) present in the bactericide were removed using a sterilized filter. 30 μl of bacteria suspension of Staphylococcus aureus or Salmonella enteritidis was added to 2 ml of the bactericide after used for the treatment of the beef. After five minutes, the number of bacterium in the bactericide was counted. As for 0.01% sodium hypochlorite, a similar test was conducted, and the results were compared.

Staphylococcus aureus [3] = assay: as above; details: 5 min
Procedure: as §1

[4] = system: Staphylococcus aureus IF012732; assay: Test of bactericidal power of bactericides mixed with meat (beef) extract
Procedure: (§2) It was evaluated whether bactericidal power was lowered when the bactericides shown in Table 20 were mixed with beef extract (Wako Junyaku) according to the following method. For comparison, sodium hypochlorite was also evaluated. Strains used herein were Staphylococcus aureus IF012732 and Salmonella enteritidis IF003313.
(§3) One ml of each of bactericides shown in Table 20 and one ml of 5% beef extract (dissolved in sterilized water) were mixed at a ratio of one to one, and allowed to stand at a room temperature. After 10 minutes, 10 μl of bacteria suspension previously prepared was added to each of the bactericides and the mixture, and allowed to stand after stirred. Change of number of bacteria in the mixture solution was determined (one minute, five minutes and 10 minutes after addition of bacteria). According to previous experiments, it was confirmed that general viable count was 10 or less per one ml of 5% beef extract. As shown in Table 21 and Table 22, when 0.02% of sodium hypochlorite was mixed with a beef extract, bactericidal power thereof was lowered.
The bactericides shown in Table 23 were examined for bactericidal power in a similar manner to that of Test Example 7.

[5] = system: Salmonella enteritidis IF003313; assay: as above
Procedure: as §2, §3

MRSA = assay: Test of persistency of bactericidal power on stainless steel
Procedure: (§4) Each of bactericide shown in Table 8 was sprayed on a sterilized stainless steel plate (15 μl/cm^2), and allowed to stand for seven days in a sterilized room to be dried. Each of the bacteria suspension previously cultured in a similar manner to that described above was diluted with physiological saline. Then, 10 μl of the diluted suspension was spread on the stainless steel. After allowed to stand for 10 minutes, bacterium on the stainless steel were wiped with absorbent cotton, and liberated into physiological saline. Then, visible count was counted. For comparison, 70% ethanol was used as a conventional bactericide. Strong bactericidal power of each bactericide of examples containing both eucalyptus extract and chitosan was maintained, even after elapse of seven days, on the stainless steel on which it was spread. The bactericidal power was stronger than that of bactericides containing only eucalyptus extract (Comparative Examples 1 to 3) or a bactericide containing only chitosan (Comparative Example 4).
(§5) Persistency of bactericidal power of the bactericides shown in Table 16 was evaluated in a similar manner to that of Test Example 3 (allowed to stand for one month). After elapse of one month from spraying of the bactericide, bactericidal power of the bactericide containing glycerol fatty acid ester in addition to eucalyptus extract and chitosan (Example 4) was stronger than that of bactericides containing no glycerol fatty acid ester (Comparative Example 5).

Bacillus subtilis = assay: as above
Procedure: as §4, §5

Salmonella enteritidis [6] = assay: as above
Procedure: as §4, §5

Staphylococcus aureus [7] = assay: as above
Procedure: as §4, §5

Escherichia coli = assay: as above
Procedure: as §4, §5

[8] = system: Trichophyton mentagrphytes; assay: Test of activity against Trichophyton mentagrphytes (paper disk, block circle); details: 8 mm paper disk with 25 μl, dried 24 hours; cultured at 28° C. for five days
Procedure: A paper disk having a diameter of 8 mm that was previously subjected to dry heat sterilization, was impregnated with 25 μl of each of fungicides shown in Table 8 and allowed to stand for 24 hours to be dried. The paper disk was put on agar medium on which spore suspension of Trichophyton […] previously prepared was spread, and cultured at 28° C. for five days. […] No block circle was formed when a fungicide containing only chitosan (Comparative Example 4) was used.

[9] = treatment of beef done (24 hours)
[10] = mixing treatment of beef extract and bactericide (10 min) done, 1 min
[11] = mixing treatment of beef extract and bactericide (10 min) done, 5 min
[12] = mixing treatment of beef extract and bactericide (10 min) done, 10 min
[13] = mixing treatment with beef extract none, 1 min
[14] = mixing treatment with beef extract none, 5 min
[15] = mixing treatment with beef extract none, 10 min

Q: OCl [0.01% Sodium hypochlorite, sodium hypochlorite] was tested. Which “Number of general bacterium” value ([1]; After 3 days) did it give?
A: Its value is 1.4 × 10^5 Number/g.

Q: What about the “Number of general bacterium” value ([1]; After 6 days) of the same molecule?
A: Its value is 3.4 × 10^7 Number/g.

Q: What about the “Number of general bacterium” value ([1]; After one day) of the same molecule?
A: Its value is 6.7 × 10^2 Number/g.

Q: What about the Viable count (Salmonella enteritidis [2]; [9]) of the same molecule?
A: Its Viable count is 1.5 × 10^5 Number/ml.

Q: What about the Viable count (Salmonella enteritidis [2]; treatment of beef none) of the same molecule?
A: The Viable count was under 1000 Number/ml.

Q: What about the Viable count (Staphylococcus aureus [3]; [9]) of the same molecule?
A: Its Viable count is 1.8 × 10^5 Number/ml.

Q: And the Viable count (Staphylococcus aureus [3]; treatment of beef none)?
A: Its Viable count is under 1000 Number/ml.

Q: [Na+].[O-]Cl [0.02% Sodium hypochloryte, sodium hypochlorite] was tested. Which Viable count [4, 10] did it give?
A: The Viable count was 6.5 × 10^6 Number/ml.

Q: And the Viable count [4, 11]?
A: The Viable count was 6.5 × 10^6 Number/ml.

Q: What about the Viable count [4, 12] of the same molecule?
A: The Viable count was 6.4 × 10^6 Number/ml.

Q: What about the Viable count [4, 13] of the same molecule?
A: Its Viable count is under 200 Number/ml.

Q: What about the Viable count [4, 14] of the same molecule?
A: Its Viable count is under 200 Number/ml.

Q: What about the Viable count [4, 15] of the same molecule?
A: Its Viable count is under 200 Number/ml.

Q: And the Viable count [5, 10]?
A: Its Viable count is 4.5 × 10^5 Number/ml.

Q: And the Viable count [5, 11]?
A: Its Viable count is 4.3 × 10^5 Number/ml.

Q: What about the Viable count [5, 12] of the same molecule?
A: Its Viable count is 4.3 × 10^5 Number/ml.

Q: And the Viable count [5, 13]?
A: Its Viable count is under 200 Number/ml.

Q: What about the Viable count [5, 14] of the same molecule?
A: The Viable count was under 200 Number/ml.

Q: What about the Viable count [5, 15] of the same molecule?
A: The Viable count was under 200 Number/ml.

Q: With CCO [70% Ethanol, Ethanol] as the molecule, how does the “Viable count (After 7 days)” value (MRSA) read?
A: The value was 1.2 × 10^6 Number/100 cm^2.

Q: And the “Viable count (After 7 days)” value (Bacillus subtilis)?
A: Its value is 3.0 × 10^6 Number/100 cm^2.

Q: And the “Viable count (After 7 days)” value (Salmonella enteritidis [6])?
A: The value was 4.5 × 10^6 Number/100 cm^2.

Q: And the “Viable count (After 7 days)” value (Staphylococcus aureus [7])?
A: The value was 3.5 × 10^6 Number/100 cm^2.

Q: And the “Viable count (After 7 days)” value (Escherichia coli)?
A: Its value is 2.2 × 10^6 Number/100 cm^2.

Q: And the “Diameter of block circle” value [8]?
A: The value was “None”.
